Test results: paper PMC8997241, “Structurally Various Sorbicillinoids From an Endophytic Fungus Acremonium citrinum SS-g13” (Frontiers in Microbiology, 2022)
“Also recorded” adds a separate entry of the source.

System: J774A.1 macrophages
Assay: Serum-mediated cholesterol efflux (BODIPY-cholesterol)
Type: cell-based
Conditions: compounds 10 µM, 24 h, then serum 6 h; pioglitazone 3 µM positive control

## C/C=C/C=C/C(O)=C1/C(=O)C(C)=C(O)[C@@]2(C)O[C@@]3(O)[C@@](C)(O)C(=O)C(C(=O)CC/C=C/C)=C(O)[C@@]3(C)[C@@H]12 [Compound 11, dihydrobisvertinolone]
  cholesterol efflux enhancing activity: significant cholesterol efflux enhancing activity; also recorded: exhibited cholesterol efflux enhancing activity
